The values that follow come from patent publication US10670605B2, “Cysteine reactive probes and uses thereof” (The Scripps Research Institute, priority 2015, dated 2020).

Assay in all cases: Competitive isoTOP-ABPP, cell lysates
What all share (assay type): binding

Assay [1] addresses T1, IDH2 C308 (P48735) (Homo sapiens, UniProt P48735).
T1 sequence (P48735 40-452): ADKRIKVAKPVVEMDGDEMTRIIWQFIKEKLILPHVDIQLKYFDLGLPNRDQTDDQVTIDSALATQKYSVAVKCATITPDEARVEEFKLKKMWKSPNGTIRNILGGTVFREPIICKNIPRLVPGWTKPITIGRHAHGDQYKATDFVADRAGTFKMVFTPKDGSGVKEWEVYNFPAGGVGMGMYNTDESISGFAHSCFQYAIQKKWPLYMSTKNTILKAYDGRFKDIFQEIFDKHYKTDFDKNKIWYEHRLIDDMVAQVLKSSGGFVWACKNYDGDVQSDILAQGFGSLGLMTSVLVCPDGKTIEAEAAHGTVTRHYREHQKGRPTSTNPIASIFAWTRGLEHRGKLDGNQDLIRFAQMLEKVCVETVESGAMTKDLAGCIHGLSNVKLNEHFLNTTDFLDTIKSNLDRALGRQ
The conditions noted are these: for isoTOP-ABPP reactivity ratio, P48735_C308 / isoTOP-ABPP reactivity profile ratio, P48735_C308: 500 μm.

Assay [2] addresses T2, PDIA6 C55 (Q15084) (Homo sapiens, UniProt Q15084).
T2 sequence (Q15084 20-440): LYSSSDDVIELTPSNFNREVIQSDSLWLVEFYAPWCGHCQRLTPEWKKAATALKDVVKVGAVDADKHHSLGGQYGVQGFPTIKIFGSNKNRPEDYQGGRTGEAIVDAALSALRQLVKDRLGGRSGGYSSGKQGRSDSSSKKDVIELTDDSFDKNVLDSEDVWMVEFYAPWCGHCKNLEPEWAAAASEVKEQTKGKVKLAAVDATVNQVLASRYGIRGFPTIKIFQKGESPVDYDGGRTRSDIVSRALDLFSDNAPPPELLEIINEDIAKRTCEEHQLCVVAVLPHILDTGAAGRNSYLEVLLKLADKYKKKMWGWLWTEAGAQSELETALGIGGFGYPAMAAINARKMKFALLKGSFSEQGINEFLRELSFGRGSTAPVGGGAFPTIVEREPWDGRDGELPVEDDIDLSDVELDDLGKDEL
Conditions: for isoTOP-ABPP reactivity ratio, Q15084_C55 / isoTOP-ABPP reactivity profile ratio, Q15084_C55: 500 μm.

The target of assay [3] is PRMT1 C109 (Q99873) (Homo sapiens, UniProt Q99873). Conditions: for isoTOP-ABPP reactivity ratio, Q99873_C109 / isoTOP-ABPP reactivity profile ratio, Q99873_C109: 500 μm.
The target in assay [4] is T3, UCHL3 C95 (P15374) (Homo sapiens, UniProt P15374).
T3 sequence (P15374 1-230): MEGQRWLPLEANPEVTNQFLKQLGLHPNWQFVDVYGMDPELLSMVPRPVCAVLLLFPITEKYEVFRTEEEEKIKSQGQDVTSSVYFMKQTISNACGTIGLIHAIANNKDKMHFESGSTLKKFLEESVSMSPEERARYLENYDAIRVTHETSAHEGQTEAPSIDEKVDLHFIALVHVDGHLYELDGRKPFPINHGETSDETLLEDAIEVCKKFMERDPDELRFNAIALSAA
The conditions noted are these: for isoTOP-ABPP reactivity ratio, P15374_C95 / isoTOP-ABPP reactivity profile ratio, P15374_C95: 500 μm.

Assay [5] has as its target ZNF217 C286 (O75362) (Homo sapiens, UniProt O75362).
Assay [6] has as its target T4, IRF4 C194 (Q15306) (Homo sapiens, UniProt Q15306).
T4 sequence (Q15306 1-451): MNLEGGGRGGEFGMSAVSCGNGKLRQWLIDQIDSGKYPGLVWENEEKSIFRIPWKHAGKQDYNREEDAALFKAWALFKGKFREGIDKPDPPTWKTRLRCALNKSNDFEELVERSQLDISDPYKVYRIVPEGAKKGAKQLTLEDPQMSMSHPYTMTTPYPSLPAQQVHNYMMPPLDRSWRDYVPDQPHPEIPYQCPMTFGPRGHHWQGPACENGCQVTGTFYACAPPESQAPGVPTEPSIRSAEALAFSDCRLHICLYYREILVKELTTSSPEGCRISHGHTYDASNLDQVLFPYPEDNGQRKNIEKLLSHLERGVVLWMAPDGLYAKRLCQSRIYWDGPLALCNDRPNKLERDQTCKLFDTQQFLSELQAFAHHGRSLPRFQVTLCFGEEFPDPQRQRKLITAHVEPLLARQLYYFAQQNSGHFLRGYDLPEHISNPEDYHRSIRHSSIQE
The conditions noted are these: 500 μm, in-vitro_ramos.
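Wherever isoTOP-ABPP reactivity profile ratio, Q99873 C109 is given: Heavy/light ratio DMSO over fragment-treated so higher means more cysteine engagement.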

Chain of PRMT1 C109 (Q99873) (Q99873 whole entry): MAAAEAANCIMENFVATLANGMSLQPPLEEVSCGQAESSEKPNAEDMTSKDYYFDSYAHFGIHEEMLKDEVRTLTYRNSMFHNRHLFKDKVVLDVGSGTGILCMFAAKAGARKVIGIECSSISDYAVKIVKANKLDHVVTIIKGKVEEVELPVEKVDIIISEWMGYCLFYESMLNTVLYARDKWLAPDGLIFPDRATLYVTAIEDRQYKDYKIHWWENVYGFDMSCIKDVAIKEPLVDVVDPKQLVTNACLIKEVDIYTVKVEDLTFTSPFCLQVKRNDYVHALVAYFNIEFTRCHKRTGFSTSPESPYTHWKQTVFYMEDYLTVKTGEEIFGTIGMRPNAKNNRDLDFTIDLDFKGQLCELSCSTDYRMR
Chain of ZNF217 C286 (O75362) (O75362 whole entry): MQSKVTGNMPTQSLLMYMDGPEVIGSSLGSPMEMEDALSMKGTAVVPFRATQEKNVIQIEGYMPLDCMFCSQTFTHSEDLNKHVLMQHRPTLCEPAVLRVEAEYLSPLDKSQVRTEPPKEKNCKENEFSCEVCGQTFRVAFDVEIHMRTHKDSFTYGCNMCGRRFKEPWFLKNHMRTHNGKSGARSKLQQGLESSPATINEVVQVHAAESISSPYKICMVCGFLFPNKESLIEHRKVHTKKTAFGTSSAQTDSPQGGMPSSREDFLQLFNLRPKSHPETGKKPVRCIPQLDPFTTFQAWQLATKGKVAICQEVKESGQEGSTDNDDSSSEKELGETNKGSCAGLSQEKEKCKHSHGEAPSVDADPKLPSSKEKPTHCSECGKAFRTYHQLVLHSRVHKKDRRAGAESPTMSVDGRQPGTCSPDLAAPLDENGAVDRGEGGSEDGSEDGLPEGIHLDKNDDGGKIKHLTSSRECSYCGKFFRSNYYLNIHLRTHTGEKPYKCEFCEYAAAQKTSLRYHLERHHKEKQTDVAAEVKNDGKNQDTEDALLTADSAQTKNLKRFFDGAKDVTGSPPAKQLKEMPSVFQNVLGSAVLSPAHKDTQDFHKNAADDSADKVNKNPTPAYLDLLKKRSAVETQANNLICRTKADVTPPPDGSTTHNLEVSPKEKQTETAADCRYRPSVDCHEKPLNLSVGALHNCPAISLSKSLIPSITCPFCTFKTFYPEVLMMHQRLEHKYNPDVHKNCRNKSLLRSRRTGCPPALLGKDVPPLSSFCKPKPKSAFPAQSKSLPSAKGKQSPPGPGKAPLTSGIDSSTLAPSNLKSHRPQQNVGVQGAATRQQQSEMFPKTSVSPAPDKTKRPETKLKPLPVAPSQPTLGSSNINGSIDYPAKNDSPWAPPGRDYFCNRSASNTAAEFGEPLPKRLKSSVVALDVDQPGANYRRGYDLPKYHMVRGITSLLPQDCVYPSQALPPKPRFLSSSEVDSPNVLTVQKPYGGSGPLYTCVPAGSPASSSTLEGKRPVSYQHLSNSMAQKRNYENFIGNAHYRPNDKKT

In the case of `CC(Cl)C(=O)Nc1cc(C(F)(F)F)cc(C(F)(F)F)c1` (stereo not drawn) [compound 25], the “isoTOP-ABPP ratio (reactivity profile), P48735_C308” value in assay [1] (500 μm in-vitro ramos_231) was found to be 14.5. Moreover, in assay [2] (500 μm in-vitro ramos_231), the “isoTOP-ABPP ratio (reactivity profile), Q15084_C55” value worked out at 1.0. Moreover, the “isoTOP-ABPP ratio (reactivity profile), Q99873_C109” value in assay [3] (500 μm in-vitro ramos_231) is 1.0. In assay [4] (500 μm in-vitro ramos_231), the “isoTOP-ABPP ratio (reactivity profile), P15374_C95” value was 0.8. Further, the “isoTOP-ABPP ratio (reactivity profile), O75362_C286” value in assay [5] (500 μm in-vitro ramos_231) is reported as 20.0.
Regarding `C=CC(=O)N(Cc1cccnc1)c1cc(C(F)(F)F)cc(C(F)(F)F)c1` [compound 31], the “isoTOP-ABPP reactivity ratio, P48735_C308” value is 1.1 in assay [1] (in-vitro_ramos) and 1.3 in assay [1] (in-vitro_ramos_231). In addition, the “isoTOP-ABPP reactivity ratio, Q15306_C194” value in assay [6] amounted to 1.1. Further, the “isoTOP-ABPP reactivity ratio, Q15084_C55” value in assay [2] (in-vitro_ramos) was 1.1; in assay [2] (in-vitro_ramos_231), 1.2. For the same compound, the results for the “isoTOP-ABPP reactivity ratio, Q99873_C109” value in assay [3] (in-vitro_ramos) and in assay [3] (in-vitro_ramos_231) were 1.3 and 1.0, respectively. The results for the “isoTOP-ABPP reactivity ratio, P15374_C95” value in assay [4] (in-vitro_ramos) and in assay [4] (in-vitro_ramos_231) were 0.7 and 0.9, respectively.
As to `Cc1ccc(C=C(C#N)C(=O)NCCN2CCOCC2)cc1` [compound 41], the “isoTOP-ABPP reactivity ratio, Q15306_C194” value in assay [6] is listed as 1.2. Further, the “isoTOP-ABPP reactivity ratio, Q15084_C55” value in assay [2] (in-vitro_ramos) was determined as 0.8; in assay [2] (in-vitro_ramos_231) it was 0.9. Moreover, the “isoTOP-ABPP reactivity ratio, Q99873_C109” value in assay [3] (in-vitro_ramos) and in assay [3] (in-vitro_ramos_231) was 0.9 in each case. The “isoTOP-ABPP reactivity ratio, P15374_C95” value turned out to be 0.8 in assay [4] (in-vitro_ramos) and 1.0 in assay [4] (in-vitro_ramos_231). For the same compound, the “isoTOP-ABPP reactivity ratio, O75362_C286” value in assay [5] (500 μm, in-vitro_ramos) is 0.6.
`N#CC(=Cc1ccc(-c2ccccc2Cl)o1)C(N)=O` [compound 42]: the “isoTOP-ABPP reactivity profile ratio, Q15306_C194” value in assay [6] was 1.2. For the same compound, the “isoTOP-ABPP reactivity profile ratio, Q15084_C55” value in assay [2] (in-vitro_ramos) worked out at 0.9. For the same compound, the “isoTOP-ABPP reactivity profile ratio, Q99873_C109” value in assay [3] (in-vitro_ramos) stood at 0.9. Moreover, in assay [4] (in-vitro_ramos), the “isoTOP-ABPP reactivity profile ratio, P15374_C95” value is on record as 0.9. In assay [5] (500 μm, in-vitro_ramos), the “isoTOP-ABPP reactivity profile ratio, O75362_C286” value is given as 1.0.
Take `CC1CCc2ccccc2N1C(=O)CCl` (stereo not drawn) [compound 45]: the “isoTOP-ABPP reactivity profile ratio, P48735_C308” value in assay [1] (in-vitro_ramos_231) is 1.0. Besides, the “isoTOP-ABPP reactivity profile ratio, Q99873_C109” value in assay [3] (in-vitro_ramos_231) is recorded as 2.2. Further, the “isoTOP-ABPP reactivity profile ratio, O75362_C286” value in assay [5] (500 μm, in-vitro_ramos_231) was found to be 20.0.
For the compound `C=CC(=O)N(c1ccccc1)C1CCCCC1` [compound 46], in assay [1] (in-vitro_ramos_231), the “isoTOP-ABPP reactivity profile ratio, P48735_C308” value was found to be 0.2. Besides, the “isoTOP-ABPP reactivity profile ratio, Q15084_C55” value in assay [2] (in-vitro_ramos_231) is on record as 0.8. Further, in assay [3] (in-vitro_ramos_231), the “isoTOP-ABPP reactivity profile ratio, Q99873_C109” value was 0.8. Further, the “isoTOP-ABPP reactivity profile ratio, P15374_C95” value in assay [4] (in-vitro_ramos_231) came to 1.0. For the same compound, in assay [5] (500 μm, in-vitro_ramos_231), the “isoTOP-ABPP reactivity profile ratio, O75362_C286” value was 0.9.
Regarding `O=C(CCl)N1CCc2cc(Br)ccc21` [compound 50], in assay [1] (in-vitro_ramos_231), the “isoTOP-ABPP reactivity profile ratio, P48735_C308” value was determined as 2.2. The “isoTOP-ABPP reactivity profile ratio, Q15084_C55” value in assay [2] (in-vitro_ramos_231) is listed as 1.3. In addition, the “isoTOP-ABPP reactivity profile ratio, Q99873_C109” value in assay [3] (in-vitro_ramos_231) was found to be 1.0. Besides, the “isoTOP-ABPP reactivity profile ratio, P15374_C95” value in assay [4] (in-vitro_ramos_231) was 1.3.
`O=C(CCl)Nc1cccc2ncccc12` [compound 51]: the “isoTOP-ABPP reactivity profile ratio, Q15306_C194” value in assay [6] was 1.4. Also, the results for the “isoTOP-ABPP reactivity profile ratio, Q15084_C55” value in assay [2] (in-vitro_ramos) and in assay [2] (in-vitro_ramos_231) were 2.7 and 2.5, respectively. Moreover, the “isoTOP-ABPP reactivity profile ratio, Q99873_C109” value came out at 9.5 in assay [3] (in-vitro_ramos) and 0.9 in assay [3] (in-vitro_ramos_231). Moreover, in assay [3] (competitive isoTOP-ABPP), the “blockade of IA-alkyne labeling of C109 of PRMT1” value is listed as “blocking IA-alkyne labeling”. Besides, the “isoTOP-ABPP reactivity profile ratio, P15374_C95” value in assay [4] (in-vitro_ramos) was 0.9. Moreover, the “isoTOP-ABPP reactivity profile ratio, O75362_C286” value was 20.0 in assay [5] (500 μm, in-vitro_ramos) and 0.9 in assay [5] (500 μm, in-vitro_ramos_231).
